{"source": "patent US7144991B2", "about": "“Streptavidin expressed gene fusions and methods of use thereof” (Aletheon Pharmaceuticals, Inc., priority 1999, dated 2006)", "assay": "Biotin binding capacity", "conditions": "9-fold molar excess of [3H]biotin", "protocol": "Biotin Binding and Dissociation. Biotin binding capacity was determined by incubation of a known quantity of fusion protein with a 9-fold molar excess of [3H]biotin (NEN Research Products, Boston, Mass.). After removal of uncomplexed biotin using streptavidin-immobilized beads (Pierce Chemical; Rockford, Ill.), the amount of [^3H]biotin associated with the fusion protein was determined.\nBiotin Binding Capacity. Biotin binding capacity was determined by incubation of a known quantity of fusion protein with a 9-fold molar excess of [^3H]biotin (NEN Research Products, Boston, Mass.). After removal of uncomplexed biotin using streptavidin-immobilized beads (Pierce Chemical; Rockford, Ill.), the amount of [^3H]biotin associated with the fusion protein was determined.", "note": "Values joined by “and” are separate entries in the source; they are usually repeats but may differ in a detail not shown here. Identical values can stand only once."}
{"substance": "recombinant streptavidin: recombinant streptavidin (Roche Biochemical), control in biotin binding and dissociation", "values": [{"measurement": "Biotin binding capacity (average biotins bound)", "value": "4 biotins and 4.0 biotins"}]}
